# Measurements from paper PMC7059199, “Identification and structural insight of an effective PPARγ modulator with improved therapeutic index for anti-diabetic drug discovery” (Chemical Science, 2020).
# Legend:
# [1] = test system: HFD mice; experiment: Anti-diabetic activity and side effects in HFD mice, 7 weeks; details: for expression of Glut4 and Adiponectin in adipose tissue (mRNA) / expression of adipogenic genes PPARγ, AP2, CD36, LPL, C/EBPa and Fasn in adipose tissue (mRNA): (S)-VSP-77 5 mg/kg i.p.
# Method: HFD mice were injected with (S)- or (R)-VSP-77 for 7 weeks.
# Laboratory Animal Co., Shanghai, China) were housed in a temperature-controlled
# For chronic treatment, mice were fed high-fat diets (60% calories from fat; Research Diets, New Brunswick, NJ, USA) or standard diets ad libitum. At 14 weeks of age, mice were randomly assigned to
# (5 mg/day/kg or 10 mg/kg/day), VSP-77 (5 mg/kg/day) and (S)- or (R)-VSP-77 (5 mg/kg/day) were intraperitoneally injected and INT131 (30 mg/kg/day) was orally treated. The glucose tolerance test (2 g/kg glucose i.p.) and determination of fasting blood glucose and insulin levels were performed after 6 h of starvation. At the end, the animals were anatomized and blood and tissues were collected for further
# [2] = molecular target: T1, GST-PPARγ LBD (Homo sapiens, UniProt P37231); experiment: LanthaScreen TR-FRET competitive binding assay, PPARγ; details: competition of Fluormone (5 nM); 0.5 nM GST-PPARγ LBD
# T1 construct: 0.5 nM GST-PPARγ LBD was incubated with 5 nM Fluormone™; purchased Invitrogen
# T1 sequence (P37231 238-503 limits assumed): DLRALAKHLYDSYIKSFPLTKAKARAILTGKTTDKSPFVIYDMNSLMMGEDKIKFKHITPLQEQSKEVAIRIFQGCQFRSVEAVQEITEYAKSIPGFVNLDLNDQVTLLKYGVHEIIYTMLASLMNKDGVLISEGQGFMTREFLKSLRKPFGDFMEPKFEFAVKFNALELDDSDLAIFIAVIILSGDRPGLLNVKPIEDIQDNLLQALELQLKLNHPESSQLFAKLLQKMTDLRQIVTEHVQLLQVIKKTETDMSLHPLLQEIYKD
# Method: LanthaScreen™ TR-FRET assay (Invitrogen) was used for measuring the binding affinities of the ligands. 0.5 nM GST-PPARγ LBD was incubated with 5 nM Fluormone™ and Terbium-coated GST antibody.
# Competitive TR -FRET binding assay
# The GST PPARγ -LBD was labeled with a terbium-linked antibody and a fluorescent small molecule pan-PPAR ligand (Fluormone™ Pan-PPAR Green, Invitrogen) was used as a tracer that is displaced from the ligand binding domain upon agonist binding.
# Excitation of the terbium at 340 nm results in FRET to the fluorescent tracer, with
# Tracer displacment results is a loss of FRET signal between the terbium label and the fluorescent tracer.
# The inhibition constant (ki) for a competitor was calculated by applying the
# Cheng-Prusoff equation as following:
# the tracer, [tracer] is the concentration of Fluormone™ Pan-PPAR Green used in the
# [3] = molecular target: T2, PPARα (Homo sapiens, UniProt Q07869); experiment: Competitive TR-FRET assay, PPARα; details: at 10 μM
# T2 sequence (Q07869 1-468): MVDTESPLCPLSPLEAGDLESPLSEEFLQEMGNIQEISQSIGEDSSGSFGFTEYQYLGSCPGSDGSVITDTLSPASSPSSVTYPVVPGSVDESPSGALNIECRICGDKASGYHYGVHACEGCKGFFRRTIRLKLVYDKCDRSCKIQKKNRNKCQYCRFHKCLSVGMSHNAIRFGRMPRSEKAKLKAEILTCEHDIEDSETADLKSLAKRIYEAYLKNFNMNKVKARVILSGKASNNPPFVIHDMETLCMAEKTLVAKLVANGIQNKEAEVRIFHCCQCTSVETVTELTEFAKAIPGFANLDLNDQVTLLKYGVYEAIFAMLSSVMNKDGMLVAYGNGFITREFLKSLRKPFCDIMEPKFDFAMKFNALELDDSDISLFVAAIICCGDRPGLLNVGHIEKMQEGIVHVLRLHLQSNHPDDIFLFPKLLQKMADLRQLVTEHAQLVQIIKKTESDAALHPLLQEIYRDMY
# [4] = test system: 3T3-L1 cells; experiment: qPCR of adipogenic genes in 3T3-L1 cells; assay type: cell-based, mouse; details: 7 days after treatment
# Method: Encouraged by the above results and to further determine whether VSP-77 activates PPARγ in 3T3-L1 cells, we evaluated the ability of VSP-77 to stimulate PPARγ activity by measuring the mRNA levels of endogenous PPARγ-regulated downstream genes linked to adipogenesis (primers are listed in Table S1 ^†).
# Fig. 7 Expression of adipogenic genes in 3T3-L1 cells was analyzed by quantitative PCR (qPCR). Relative mRNA levels of the adipocyte differentiation genes PPARγ, aP2, CD36, LPL, C/EBPα and Fasn. mRNA was extracted from differentiating cells 7 days after treatment (n = 3, error bars = SEM). […]
# (average±standard deviation calculated from three separate experiments). […]
# Cells were stained with Oil Red O to estimate the lipid accumulation. The images were analyzed using ImageJ (National Institutes of Health).
# For real-time PCR analysis, 1-2 μg total RNA was reverse-transcribed using the SuperScript cDNA Reverse Transcription Kit (Invitrogen) with SYBR Green PCR Master Mix (Invitrogen) and gene specific primers (Table S1) using a Roche Light Cycler 480 machine. The relative expression of mRNA was determined after normalization to β-actin level using the ΔΔ-Ct method. […]
# [5] = test system: 3T3-L1 cells; experiment: 3T3-L1 adipocyte differentiation assay (Oil Red O staining); assay type: cell-based, mouse; details: Rosi 10 μM; 2 days
# Method: One of the best documented side-effects of the PPARγ agonist drugs is weight gain as PPARγ is the key activator of adipogenesis. To determine whether VSP-77 promotes adipogenesis, we treated mouse fibroblast 3T3-L1 cells with 100 μM of VSP-77. […] Cells were incubated with Oil Red O, which stains adipocytes red.
# Fig. 6 3T3-L1 adipocyte differentiation assay. Oil Red O staining of 3T3-L1 fibroblast cells after differentiating with different ligands for 2 days. […]
# Adipocyte differentiation assay
# The adipocyte differentiation assay was performed with NIH 3T3-L1 preadipocytes obtained from ATCC. The 3T3-L1 preadipocytes were maintained in DMEM containing 10% FBS and antibiotics. For differentiation DMI (Dexamethazone 1 μM, 3-isobutyl-1-methyxanthine (IBMX) 0.5 mM and Insulin167 nM) and 10 μM of rosiglitazone were used as positive controls for the assay. VSP-77 was used at a 100 μM concentration. All the treatments have insulin at 167 nM concentration. Media with DMSO was used as a negative control. Differentiation was induced by treating post-confluent cultures with media containing the respective ligands for two days.
# Cells were stained with Oil Red O to estimate the lipid accumulation. The images were analyzed using ImageJ (National Institutes of Health). […]
# [6] = molecular target: hERG potassium ion channel (Homo sapiens, UniProt Q12809); design: method as in PMID 23054723; details: read-out: hERG inhibition IC50; cited from earlier work
# hERG potassium ion channel, sequence (Q12809 whole entry): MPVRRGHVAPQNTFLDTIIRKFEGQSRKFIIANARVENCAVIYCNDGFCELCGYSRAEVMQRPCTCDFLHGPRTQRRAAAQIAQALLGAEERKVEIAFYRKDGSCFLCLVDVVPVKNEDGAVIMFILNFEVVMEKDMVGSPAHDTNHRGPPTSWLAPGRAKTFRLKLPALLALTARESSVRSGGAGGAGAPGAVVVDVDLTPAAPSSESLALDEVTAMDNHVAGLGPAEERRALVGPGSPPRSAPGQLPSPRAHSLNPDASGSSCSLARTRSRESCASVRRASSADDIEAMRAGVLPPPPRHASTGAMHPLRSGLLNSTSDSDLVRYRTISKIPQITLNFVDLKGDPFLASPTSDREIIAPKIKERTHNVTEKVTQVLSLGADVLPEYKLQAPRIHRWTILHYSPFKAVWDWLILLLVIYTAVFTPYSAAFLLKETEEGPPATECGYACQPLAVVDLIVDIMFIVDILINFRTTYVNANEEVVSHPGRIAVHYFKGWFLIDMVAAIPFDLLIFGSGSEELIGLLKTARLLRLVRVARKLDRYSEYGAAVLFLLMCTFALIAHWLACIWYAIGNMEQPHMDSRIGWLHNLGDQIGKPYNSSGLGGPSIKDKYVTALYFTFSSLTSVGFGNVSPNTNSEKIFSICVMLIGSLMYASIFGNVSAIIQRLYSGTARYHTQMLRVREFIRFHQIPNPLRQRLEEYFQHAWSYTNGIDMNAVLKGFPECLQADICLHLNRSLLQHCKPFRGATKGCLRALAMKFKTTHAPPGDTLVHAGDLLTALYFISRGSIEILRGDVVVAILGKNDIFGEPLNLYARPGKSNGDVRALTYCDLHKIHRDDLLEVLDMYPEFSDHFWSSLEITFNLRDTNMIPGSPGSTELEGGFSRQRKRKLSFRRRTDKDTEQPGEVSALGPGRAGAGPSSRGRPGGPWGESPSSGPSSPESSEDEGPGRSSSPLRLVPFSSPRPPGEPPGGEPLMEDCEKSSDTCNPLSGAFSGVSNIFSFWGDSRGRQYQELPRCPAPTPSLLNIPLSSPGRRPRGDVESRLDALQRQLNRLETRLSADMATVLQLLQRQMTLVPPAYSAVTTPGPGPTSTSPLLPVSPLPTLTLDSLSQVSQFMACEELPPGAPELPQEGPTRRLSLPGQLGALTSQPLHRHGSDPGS
compound,measurement,setting,value
CCCCCCC[C@H](OCC(=O)O)c1ccc(Cl)cc1 [(S)-VSP-77],CDK5-mediated Ser-273 phosphorylation of PPARγ in white adipose tissue,[1]; 5 mg/kg i.p.,effectively blocked
same,fasting glucose levels,[1]; 5 mg/kg i.p.,significant reduction
same,fasting insulin levels,[1]; 5 mg/kg i.p.,significant reduction
same,fluid retention,[1]; 5 mg/kg i.p.,does not promote
same,expression of Glut4 and Adiponectin in adipose tissue (mRNA),[1]; Rosi 10 mg/kg i.p.,increased
same,"expression of adipogenic genes PPARγ, AP2, CD36, LPL, C/EBPa and Fasn in adipose tissue (mRNA)",[1]; Rosi 10 mg/kg i.p.,weakly induced
"CCCCCCCCCC(=O)O [DA, decanoic acid, reference compound]",Ki,[2],50.5 µM
"CC(C)(Sc1ccc(CCN(CCCCC2CCCCC2)C(=O)NC2CCCCC2)cc1)C(=O)O [GW7647, reference compound]",binding capability for PPARα,[3],~100%
"CN(CCOc1ccc(CC2SC(=O)NC2=O)cc1)c1ccccn1 (centres unmarked) [Rosi, rosiglitazone, reference compound]","expression of adipogenic genes PPARγ, aP2, CD36, LPL, C/EBPα and Fasn (mRNA)",[4],robustly induced
same,body weight gain,"[1]; (S)-/(R)-VSP-77 5 mg/kg i.p., Rosi 10 mg/kg i.p.",observed
same,expression of Glut4 and Adiponectin in adipose tissue (mRNA),[1]; Rosi 10 mg/kg i.p.,increased
same,"expression of adipogenic genes PPARγ, AP2, CD36, LPL, C/EBPa and Fasn in adipose tissue (mRNA)",[1]; Rosi 10 mg/kg i.p.,robustly stimulated
same,% Area stained by Oil Red O,[5],37%
same,IC50,[6],18.8 µM
